Assay results published in patent US20240342138A1, “MICROTUBULE TARGETING AGENTS” (BPGbio, Inc., priority 2023, published 2024).

Tests used:
[1] = system: DU145 tumors; assay: Prostate cancer xenograft model; assay type: in vivo, nude mice
Procedure: FIG. 12A-12E show the efficacy of Compound lin a prostate cancer xenograft model (DU145). A) In vitro potency of Compound 1 in DU145 cells as evaluated by ATPlite 1Step™ Perkin Elmer (performed by NTRC Oncolines). B) DU145 cells were implanted subcutaneously in nude mice and tumors were allowed to grow to a volume of 210 mm^3 followed by randomization of animals into three (3) groups (vehicle control, 75 mg/kg, 150 mg/kg Compound 1) with 12 animals per group. A Compound 1 solid dispersion was prepared prior to each dosing and administered by oral gavage two times a day (BID). Mean tumor volume of each group over time and the growth of tumor in each individual animal was graphed. For each individual animal of vehicle group TGI (%) was calculated based on the tumor growth inhibition of individual tumor at each given day of the study compared to the average of the group for that given day of the study. P-values were calculated using two-tailed distribution and two-sample equal variance (homoscedastic) for each group treated with Compound 1 for each given day of the study in reference to vehicle control. NS p>0.05; *p≤0.05; **p≤0.01; ***p p≤0.001; **** p≤0.0001. C) Plasma and tumor tissues from vehicle (n=11), 75 mg/kg (n=12), and 150 mg/kg (n=12) groups were harvested at the end of the study. The concentration of Compound lin the plasma or tumor tissue was plotted as a column plot (Average t SEM) or Scatter Plot with Median. D) Tumor tissues from vehicle (n=12), 75 mg/kg (n=12) and 150 mg/kg (n=12) groups were harvested at the end of the study when each animal was sacrificed. The level of two biomarkers, pHH3 and CCNB1 in each tissue was measured and graphed as the Min-to-Max plot and scatter plot of the level of each biomarker. The line in the scatter plot indicates the group mean. E) Body weight of each individual animal was measured on days 0, 2, 5, 7, 9, 12, 14, 16, 19, 21, 23, and 26 and graphed using Graphpad Prism.
Anti-tumor efficacy of Compound 1 was evaluated against three (3) different preclinical oncology mice models of colorectal cancer, prostate cancer, and lung adenocarcinoma (see Table 5 below). For this purpose, an oral formulation of Compound 1 was used.
DU145 is an epithelial cell carcinoma derived from the metastatic site (brain). DU145 cells were implanted subcutaneously in nude mice and tumors were allowed to grow to an average volume of 106 mm^3 followed by randomization into three (3) groups consisting of vehicle control, 75 mg/kg and 150 mg/kg Compound 1 (12 animals per group). A Compound 1 solid dispersion was administered by oral gavage two times a day (BID). All animals, except one animal from vehicle group, survived throughout the 26 days of the study. Any animal that left the study prior to Day 26 was eliminated from all calculations. The percentage of tumor growth inhibition (TGI %) was calculated for each individual tumor. The mean tumor volume of each group over time and the growth of tumor in each individual animal is plotted below. The percentage of tumor growth inhibition (TGI %) was calculated for each individual animal.

[2] = system: HCT116 cells; assay: Kinetochore assembly, immunocytochemistry / confocal microscopy; assay type: cell-based; conditions: 300 nM, 24h
Procedure: The HCT116 cells were cultured using DMEM media supplemented with 10% FBS and 1% Pen/Strep. Cells were maintained to a maximum of 80% confluency before being split and plated into coverslips in 12-well plates.
1. HCT116 cells were plated on Poly-D-Lysine German Glass Coverslips (#1.5, 18 mm)
2. After 24h cells were treated with 300 nM of Compound 1 and Nocodozole.
3. After 24h cells were washed briefly with PBS and fixed with warm 4% paraformaldehyde at room temperature for 10 min.
4. Cells were permeabilized and blocked in 10% goat serum, 0.5% Triton-X in PBS for 1 hr.
5. Cells were incubated with Primary antibodies overnight.
6. Washed 3× with PBS for 10 min
7. Incubated with secondary antibodies at room temperature for 1 hr.
8. Washed 3× with PBS for 10 min
9. Coverslips were mounted with ProLong Gold Anti-Fade Mount with DAPI and imaged with Olympus FV1200 MPE Microscope.
10. Images were collected with identical confocal settings for all of the samples and Z-stacked images were projected with maximal projection mode using Fluor View Software.
1. Selected cells of interest using the drawing/selection tools (i.e. rectangle, circle, polygon or freeform).
2. From the Analyze menu selected “Measure.”
3. Selected region with no fluorescence to be my background.
4. Repeated these steps for other cells in the field of view
5. Used the CTCF formula to calculate Mad1 expression:
CTCF=Integrated Density−(Area of selected cell×Mean fluorescence of background readings)
Micrographs were imaged using Olympus FV1200 MPE confocal microscope at 63× oil. White arrows indicate dividing cells. Representative images of N=3 biological replicates. Significance in difference of treated HCT116 cells to untreated cells was tested by Student t test (** p<0.01).

`COc1ccccc1-c1nc(CNC(=O)c2ccccc2OC(F)F)n[nH]1` [Compound 1, 2-(difluoromethoxy)-N-[[5-(2-methoxyphenyl)-1H-1,2,4-triazol-3-yl]methyl]benzamide] was tested, and the “TGI (%)” value ([1]; 75 mg/kg BID oral, day 26) was 22%, the “Level of the drug in the plasma and tumor tissue” value ([1]; 75 mg/kg to 150 mg/kg, FIG. 12C) was “dose-dependent increase” and the “Maximum TGI (%), end of the study” value ([1]; 150 mg/kg BID oral (b152 prints 150 mg/g), day 26) was 38%. The Body weight ([1]; 26 days, FIG. 12E) was “no body weight loss related to the drug”, the “Level of biomarkers CCNB1 and pHH3” value ([1]; tumor tissue, FIG. 12D) was “increase” and the Mitotic spindle formation ([2]; FIG. 4A) was “lack of proper mitotic spindle formation”. The Mad1 signal intensity ([2]; FIG. 4B) was “increase in Mad1 signal intensity”.
